Experimental data as given in patent publication US6239146A, “Neurotrophic difluoroamide agents” (Bristol-Myers Squibb Company, priority 2000, dated 2001).

Biological target: FKBP12 (Homo sapiens, UniProt P62942)
Test: FKBP12 Rotamase Inhibition Assay
Type: biochemical
Conditions: for inhibition at 10 µM: read-out: Percent Inhibition at 10 μM (rotamase); for Ki: 4° C., chymotrypsin-coupled, succinyl-Ala-Leu-Pro-Phe-p-nitroanilide substrate, read-out: Ki (apparent Ki for inhibition of rotamase activity)

FKBP12, sequence (P62942 whole entry, species assumed): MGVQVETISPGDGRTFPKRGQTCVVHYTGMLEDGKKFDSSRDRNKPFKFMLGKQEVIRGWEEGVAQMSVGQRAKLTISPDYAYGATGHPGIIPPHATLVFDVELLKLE

| inhibition at 10 µM [%] | Ki [nM] | SMILES |
| --- | --- | --- |
| 94 | – | COc1cc(C(F)(F)C(=O)N2CCCC[C@H]2C(=O)OC(CCc2ccccc2)c2ccccc2)cc(OC)c1OC (stereo partly shown) [Example 7] |
| 97 | 1300 | COc1cc(C(F)(F)C(=O)N2CCC[C@H]2C(=O)OCCCc2ccccc2)cc(OC)c1OC [Example 1] |
| 70 | – | COc1cc(C(F)(F)C(=O)N2CCC[C@H]2C(=O)OC(C)(C)CCc2ccccc2)cc(OC)c1OC [Example 5] |
| 99 | 109 | COc1cc(CCCOC(=O)[C@@H]2CCCCN2C(=O)C(F)(F)c2cc(OC)c(OC)c(OC)c2)cc(OC)c1OC [Example 9] |
| 38 | – | COc1cc(CCCOC(=O)[C@@H]2CCCN2C(=O)C(F)(F)c2cc(OC)c(OC)c(OC)c2)cc(OC)c1OC [Example 8] |

More lines, now with the values behind:

| SMILES | inhibition at 10 µM [%] | Ki [nM] |
| --- | --- | --- |
| COc1cc(C(F)(F)C(=O)N2CCCC[C@H]2C(=O)OC(CCCc2ccccc2)CCCc2cccnc2)cc(OC)c1OC (stereo partly shown) [Example 4] | 98 | – |
| COc1cc(C(F)(F)C(=O)N2CCC[C@H]2C(=O)OC(CCc2ccccc2)c2ccccc2)cc(OC)c1OC (stereo partly shown) [Example 6] | 100 | 83 |
| COc1cc(C(F)(F)C(=O)N2CCC[C@H]2C(=O)OCCCc2cccnc2)cc(OC)c1OC [Example 2] | – | 877 |
| COc1cc(C(F)(F)C(=O)N2CCC[C@H]2C(=O)OC(CCCc2ccccc2)CCCc2cccnc2)cc(OC)c1OC (stereo partly shown) [Example 3] | 97 | 104 |
